According to article PMC8956739, “A synthetic lipopeptide targeting top-priority multidrug-resistant Gram-negative pathogens” (Nature Communications, 2022):
In brackets after ≈: the same amount, converted by molar mass. Several values for one entry are separate records, joined by “and”; a condition that tells them apart may be missing. Equal entries are not always repeated. Residues, ends and D or L forms follow the SMILES beside them.

Tests used:
P. aeruginosa ATCC 27853 [1] = assay: Neutropenic mouse bloodstream infection model; assay type: in vivo; details: single IV dose 4 mg/kg; for Log10 CFU/mL blood at 4 h, Mean / Δlog10 CFU/mL blood (mean) / Log10 CFU/mL blood at 4 h, single mouse: 4 h; for Δlog10 CFU/mL blood (mean): treated minus control, mean of replicates; for Δlog10 CFU/mL blood (mean) / Log10 CFU/mL blood at 4 h, single mouse / Delta Log10 CFU/mL blood at 4 h, single mouse: 4 mg/kg; for Delta Log10 CFU/mL blood at 4 h, single mouse: treated mouse minus mean of vehicle mice
Method: The experimental methodology for the neutropenic mouse bloodstream infection model was described previously. Briefly, 7-week-old female Swiss mice (22–28 g) were rendered neutropenic by intraperitoneal administration of cyclophosphamide, 4 days (150 mg/kg) and 1 day (100 mg/kg) prior to inoculation. Bloodstream infection was established by intravenous administration of a 50 µL bolus of early log-phase bacterial suspension (4 × 10^8 CFU/mL). Lipopeptide solutions were prepared at 1 mg/mL (free base) in sterile saline. At 2 h after inoculation, mice (n = 3) were injected intravenously with lipopeptide solution at 4 mg/kg (free base) or saline control. At 0 and 4 h after administration, blood was collected, diluted serially in sterile saline, and plated on nutrient agar plates. Agar plates were incubated at 37 °C overnight for bacterial colony counting and the bacterial load in the blood (log10 CFU/mL) in each mouse was calculated. In vivo efficacy was calculated as the difference of the log10 CFU/mL blood values between the treated mice and the saline-treated mice at 4 h post dosing (Δlog10 CFU/mL blood = log10 [treated] CFU/mL blood − log10[control] CFU/mL blood).

[2] = system: P. aeruginosa FADDI-PA025; assay type: cell-based, Pseudomonas aeruginosa; details: FADDI-PA025
Method: (§1) MICs were determined in cation-adjusted Mueller–Hinton broth (CaMHB) by the broth micro-dilution method against ATCC strains and clinical isolates. MICs in the presence of Survanta® were determined as described above against P. aeruginosa ATCC 27853. In the 100 μL of fresh CaMHB containing polymyxins, 10% Survanta® (v/v, 2.5 mg/mL phospholipids) was added. MICs in the presence and absence of Survanta® were compared to determine the effect of binding to lung surfactant on the antibacterial activity of polymyxins.

[3] = system: P. aeruginosa FADDI-PA038; assay type: cell-based, Pseudomonas aeruginosa; details: FADDI-PA038
Method: as §1

P. aeruginosa ATCC 27853 [4] = assay type: cell-based, Pseudomonas aeruginosa; details: ATCC 27853
Method: as §1

[5] = system: K. pneumoniae FADDI-KP065; assay type: cell-based, Klebsiella pneumoniae; details: FADDI-KP065
Method: as §1

[6] = system: K. pneumoniae FADDI-KP032; assay type: cell-based, Klebsiella pneumoniae; details: FADDI-KP032
Method: as §1

A. baumannii FADDI-AB030 = assay type: cell-based, Acinetobacter baumannii; details: FADDI-AB030
Method: as §1

A. baumannii ATCC 19606 = assay type: cell-based, Acinetobacter baumannii; details: ATCC 19606
Method: as §1

A. baumannii FADDI-AB034 = assay type: cell-based, Acinetobacter baumannii; details: FADDI-AB034
Method: as §1

Swiss mice, kidney = assay: Nephrotoxicity in mice (kidney histopathology); assay type: in vivo, mouse; details: for Kidney histopathology (SQS Score): 72 mg/kg/d subcutaneously in six divided doses every 2 h, n = 3; for Kidney histopathology, mice with the SQS score: mouse, in vivo
Method: The experimental methodology has been previously reported by our group. Briefly, individual lipopeptide solutions were prepared in sterile saline (6 mg/mL). Swiss mice (female, 7-week-old, 22–28 g) were subcutaneously administered at 12 mg/kg in, 6 doses every 2 h to reach a total dose of 72 mg/kg (n = 3). For high-dose nephrotoxicity experiments, mice were intraperitoneally administered at 20 or 25 mg/kg, in 6 doses every 2 h to reach a total dose of 120 mg/kg (n = 6) or 150 mg/kg (n = 3). At 20 h after the last dose, the right kidney from each mouse was collected and placed in 10% buffered (pH 7.4) formalin (Sigma-Aldrich, Castle Hill, NSW, Australia). The kidneys were subjected to histological examination at the Australian Phenomics Network-Histopathology and Organ Pathology (University of Melbourne, Parkville, VIC, Australia), who was blind to the treatment groups.

| SMILES | Log10 CFU/mL blood at 4 h, Mean (P. aeruginosa ATCC 27853 [1]) [Log10 CFU/mL blood] | Δlog10 CFU/mL blood (mean) (P. aeruginosa ATCC 27853 [1]) [log10 CFU/mL blood] | Log10 CFU/mL blood at 4 h, single mouse (P. aeruginosa ATCC 27853 [1]) | Delta Log10 CFU/mL blood at 4 h, single mouse (P. aeruginosa ATCC 27853 [1]) | MIC P. aeruginosa FADDI-PA025 [2] [µg/mL] | MIC P. aeruginosa FADDI-PA038 [3] [µg/mL] | MIC P. aeruginosa ATCC 27853 (P. aeruginosa ATCC 27853 [4]) [µg/mL] | MIC K. pneumoniae FADDI-KP065 [5] [µg/mL] | MIC K. pneumoniae FADDI-KP032 [6] [µg/mL] | MIC A. baumannii FADDI-AB030 (A. baumannii FADDI-AB030) [µg/mL] | MIC A. baumannii ATCC 19606 (A. baumannii ATCC 19606) [µg/mL] | MIC A. baumannii FADDI-AB034 (A. baumannii FADDI-AB034) [µg/mL] | Kidney histopathology (SQS Score) (Swiss mice, kidney) | Kidney histopathology, mice with the SQS score (Swiss mice, kidney) |
| --- | --- | --- | --- | --- | --- | --- | --- | --- | --- | --- | --- | --- | --- | --- |
| CCCCCCCC(=O)N[C@@H](CCN)C(=O)N[C@H](C(=O)N[C@@H](CCN)C(=O)N[C@H]1CCNC(=O)[C@H]([C@@H](C)O)NC(=O)[C@H](CCN)NC(=O)[C@H](CCN)NC(=O)[C@H](C)NC(=O)[C@@H](CC(C)C)NC(=O)[C@H](CCN)NC1=O)[C@@H](C)O [Lipopeptide F124] (HELM PEPTIDE1{[CCCCCCCC(=O)[*:2]].[Dab].T.[Dab].[Dab].[Dab].[dL].A.[Dab].[Dab].T}$PEPTIDE1,PEPTIDE1,5:R3-11:R2$$$V2.0) | 4.53 | −2.92 | 4.71 Log10 CFU/mL blood and 4.61 Log10 CFU/mL blood and 4.26 Log10 CFU/mL blood | -2.74 Log10 CFU/mL blood and -2.83 Log10 CFU/mL blood and -3.19 Log10 CFU/mL blood | >32 | 0.5 (≈ 0.449 µM) | 0.5 (≈ 0.449 µM) | <0.125 | 0.25 (≈ 0.225 µM) | 1 (≈ 0.898 µM) | 1 (≈ 0.898 µM) | 0.5 (≈ 0.449 µM) | 0 (SQS 0 = no significant change (overall score, <1)) | 3/3 |
| CCCCCCCC(=O)N[C@@H](CCN)C(=O)N[C@H](C(=O)N[C@@H](CCN)C(=O)N[C@H]1CCNC(=O)[C@H]([C@@H](C)O)NC(=O)[C@H](CCN)NC(=O)[C@H](CCN)NC(=O)[C@H]([C@@H](C)O)NC(=O)[C@@H](Cc2ccccc2)NC(=O)[C@H](CCN)NC1=O)[C@@H](C)O [Lipopeptide F224] (HELM PEPTIDE1{[CCCCCCCC(=O)[*:2]].[Dab].T.[Dab].[Dab].[Dab].[dF].T.[Dab].[Dab].T}$PEPTIDE1,PEPTIDE1,5:R3-11:R2$$$V2.0) | 4.07 | −3.38 | 4.08 Log10 CFU/mL blood and 4.03 Log10 CFU/mL blood and 4.10 Log10 CFU/mL blood | -3.37 Log10 CFU/mL blood and -3.42 Log10 CFU/mL blood and -3.35 Log10 CFU/mL blood | 16 (≈ 13.6 µM) | 0.5 (≈ 0.425 µM) | 1 (≈ 0.849 µM) | <0.125 | 0.5 (≈ 0.425 µM) | 0.25 (≈ 0.212 µM) | 1 (≈ 0.849 µM) | 0.5 (≈ 0.425 µM) | 0 (SQS 0 = no significant change (overall score, <1)) | 3/3 |
